These are literature values, as cited in patent publication US6838238B1, “Morphatides: novel shape and structure libraries” (Invitrogen Corporation, priority 1996, dated 2005).

For the data set the following is noted: ionizes by hydration to yield the tetrahedral phenylboronate anion.

With `OB(O)c1ccccc1` [Phenylboronic acid], the pKa is listed as 8.86.
